Data as given in US7163952B2, “Azole compound and medicinal use thereof” (Japan Tobacco Inc., priority 2001, dated 2007).

What was measured:
[1] = target: T1, recombinant human protein tyrosine phosphatase 1B (Homo sapiens, UniProt P18031); experiment: Protein tyrosine phosphatase 1B inhibitory action (malachite green, phosphorylated insulin receptor peptide substrate); type: biochemical; details: recombinant human PTP1B, 60 min room temperature, absorbance at 650 nm
T1 construct: purchased UBI
T1 sequence (P18031 1-435): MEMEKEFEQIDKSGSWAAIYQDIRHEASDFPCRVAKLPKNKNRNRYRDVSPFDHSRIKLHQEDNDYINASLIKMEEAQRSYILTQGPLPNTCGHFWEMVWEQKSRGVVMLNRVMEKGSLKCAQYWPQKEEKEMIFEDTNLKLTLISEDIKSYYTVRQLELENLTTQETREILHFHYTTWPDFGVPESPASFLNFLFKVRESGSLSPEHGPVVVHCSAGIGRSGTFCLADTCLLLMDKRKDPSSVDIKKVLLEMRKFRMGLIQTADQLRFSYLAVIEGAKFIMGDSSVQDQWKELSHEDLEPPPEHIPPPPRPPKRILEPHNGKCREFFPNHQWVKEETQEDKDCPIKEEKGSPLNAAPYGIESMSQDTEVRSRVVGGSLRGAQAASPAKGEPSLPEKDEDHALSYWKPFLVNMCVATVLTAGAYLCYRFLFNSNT
Description: Preparation of Assay Buffer:
50 mM Tris-HCl buffer (pH 7.5), and 50 mM NaCl and 3 mM dithiothreitol (DTT) were prepared.
Respective 10 mM DMSO solutions of 0.1, 0.3, 1, 3 and 10 μM test compounds were diluted with the above-mentioned assay buffer so that the final dimethyl sulfoxide (DMSO) concentration would be not more than 1%. As a control, an assay buffer was used.
Preparation of Substrate:
A synthetic peptide consisting of 12 amino acids corresponding to 1142nd–1153rd of insulin receptor sequence, wherein three tyrosines therein had been phosphorylated, was diluted with the above-mentioned assay buffer to 80 μM.
A recombinant human protein tyrosine phosphatase 1B (manufactured by UBI) was diluted with the above-mentioned assay buffer (1.2 ng/25 μl).
A sample (10 μl) and a substrate (25 μl) prepared as mentioned above were successively added to a 96 well plate, and an enzyme (25 μl) prepared as mentioned above was added and mixed. After incubation at room temperature for 60 min., malachite green (120 μl, Biomol), which is a phosphorus color fixing agent, was added, and the mixture was further incubated at room temperature for 20 min. to allow color development. The absorbance at 650 nm was measured on a plate reader, and the protein tyrosine phosphatase 1B inhibitory action of the test compound was evaluated.

male ob/ob mice = experiment: Hypoglycemic action in ob/ob mice, oral administration; type: in vivo; details: Mus musculus, fasting, 3 hr after administration, relative to control group, read-out: Decrease in blood glucose level (%) 3 hr; for inhibition in vivo at 0.3 mg/kg: dose 0.3 mg/kg oral; for inhibition in vivo at 1 mg/kg: dose 1 mg/kg oral; for inhibition in vivo at 3 mg/kg: dose 3 mg/kg oral
Description: A 0.5% methyl cellulose suspension of the test compound was orally administered to male ob/ob mice (6 to 9 weeks old) grouped based on blood glucose level. A 0.5% methyl cellulose solution alone was administered to a control group.
The blood was drawn from the orbital vein with anesthesia at 3 hours after the administration. The blood was drawn under fasting by removing the feed immediately before test compound administration. The blood thus drawn was separated by centrifugation and the blood glucose level was measured from the obtained plasma according to the hexokinase method (glucose measure kit). For evaluation, decrease in the blood glucose level of the test compound administration group relative to the control group was shown in percentage.

db/db mice = experiment: Blood lipid lowering action in db/db mice, oral administration once a day for 14 days; type: in vivo; details: non-fasting; for Plasma triglyceride concentration (mg/dL) Day 7: Day 7 (control group 508); for Plasma triglyceride concentration (mg/dL) Day 14: Day 14 (control group 622)
Description: A 0.5% methyl cellulose suspension of the test compound was orally administered to 7-week-old db/db mice once a day for 14 days. The 0.5% methyl cellulose solution alone was administered to the control group.
The blood was drawn from the orbital vein with light ether anesthesia before test compound administration on day 7 day 14 under non-fasting condition. The blood thus drawn was separated by centrifugation and the plasma triglyceride concentration was measured from the obtained plasma according to the enzyme method (triglyceride measure kit).

Row | IC50 [1] | melting point | SMILES | inhibition in vivo at 3 mg/kg (male ob/ob mice) | also measured
1 | 0.49 µM | 190 to 193 °C | CN(Cc1ccc(C2CCC(F)(F)CC2)cc1)c1ccc(-c2csc(N(C)Cc3ccc(C(=O)O)cc3)n2)cc1 [Example 209, 4-((N-(4-(4-(N-(4-(4,4-difluorocyclohexyl)benzyl)-N-methylamino)phenyl)-2-thiazolyl)-N-methylamino)methyl)benzoic acid] | 20% | 
2 | 0.11 µM | 155 to 158 °C | CN(Cc1ccc(C2CCC(C)(C)CC2)cc1)c1ccc(-c2csc(N(C)Cc3ccc(C(=O)O)cc3)n2)cc1 [Example 215, 4-((N-(4-(4-(N-(4-(4,4-dimethylcyclohexyl)benzyl)-N-methylamino)phenyl)-2-thiazolyl)-N-methylamino)methyl)benzoic acid] | 39% | inhibition in vivo at 0.3 mg/kg (male ob/ob mice): -9%; inhibition in vivo at 1 mg/kg (male ob/ob mice): 32%
3 | 0.26 µM | 188 to 190 °C | O=C(O)c1ccc(CN(CC2CCCCC2)c2nc(-c3nc4ccc(OCc5ccc(Cl)c(Cl)c5)cc4o3)cs2)cc1 [Example 217, 4-((N-cyclohexylmethyl-N-(4-(6-(3,4-dichlorobenzyloxy)-2-benzooxazolyl)-2-thiazolyl)amino)methyl)benzoic acid] | 20% | 
4 | 0.15 µM | 185 to 191 °C | CC1CCC(c2ccc(CN(C)c3ccc(-c4csc(N(C)Cc5ccc(C(=O)O)cc5)n4)cc3)cc2)CC1 (stereo not drawn) [Example 218, 4-((N-methyl-N-(4-(4-(N-methyl-N-(4-(4-methylcyclohexyl)benzyl)amino)phenyl)-2-thiazolyl)amino)methyl)benzoic acid] | 27% | 
5 | 0.15 µM | 114 to 115 °C | CCCC(CCC)c1ccc(CN(C)c2ccc(-c3csc(N(C)Cc4ccc(C(=O)O)cc4)n3)cc2)cc1 [Example 230, 4-((N-methyl-N-(4-(4-(N-methyl-N-(4-(1-propylbutyl)benzyl)amino)phenyl)-2-thiazolyl)amino)methyl)benzoic acid] | 40% | 
6 |  | 76 to 84 °C | CC(C)OC(=O)OC(C)OC(=O)c1ccc(CN(C)c2nc(-c3ccc(OCc4ccc(C5CCCCC5)cc4)cc3)cs2)cc1 (stereo not drawn) [Example 271, 1-isopropoxycarbonyloxyethyl 4-((N-(4-(4-(4-cyclohexylbenzyloxy)phenyl)-2-thiazolyl)-N-methylamino)methyl)benzoate] |  | 
7 |  | 75 to 79 °C | CC(OC(=O)OC1CCCCC1)OC(=O)c1ccc(CN(C)c2nc(-c3ccc(OCc4ccc(C5CCCCC5)cc4)cc3)cs2)cc1 (stereo not drawn) [Example 272, 1-cyclohexyloxycarbonyloxyethyl 4-((N-(4-(4-(4-cyclohexylbenzyloxy)phenyl)-2-thiazolyl)-N-methylamino)methyl)benzoate] |  | 
8 |  | 87 to 92 °C | Cc1oc(=O)oc1COC(=O)c1ccc(CN(C)c2nc(-c3ccc(OCc4ccc(C5CCCCC5)cc4)cc3)cs2)cc1 [Example 273, 5-methyl-2-oxo-1,3-dioxl-4-ylmethyl 4-((N-(4-(4-(4-cyclohexylbenzyloxy)phenyl)-2-thiazolyl)-N-methylamino)methyl)benzoate] |  | 

Second part, the compound before the results:

Row | SMILES | IC50 [1] | melting point | inhibition in vivo at 3 mg/kg (male ob/ob mice) | also measured
9 | CN(Cc1ccc(C2CCCCC2)cc1)c1ccc(-c2csc(N(C)Cc3ccc(C(=O)O)cc3)n2)cc1 [Example 1, 4-(N-(4-(4-(N-(4-cyclohexylbenzyl)-N-methylamino)phenyl)-2-thiazolyl)-N-methylaminomethyl)benzoic acid] | 0.32 µM |  | 35% | inhibition in vivo at 0.3 mg/kg (male ob/ob mice): 35%; inhibition in vivo at 1 mg/kg (male ob/ob mice): 35%
10 | CN(Cc1ccc(C(=O)O)cc1)c1nc(-c2ccc(OCc3ccc(C4CCCCC4)cc3)cc2)cs1 [Example 2, potassium 4-(N-(4-(4-(4-cyclohexylbenzyloxy)phenyl)-2-thiazolyl)-N-methylaminomethyl)benzoate] | 0.22 µM |  | 47% | inhibition in vivo at 1 mg/kg (male ob/ob mice): 37%
11 | CN(c1ccc(C(=O)O)cc1)c1nc(-c2ccc(NCc3ccc(C4CCCCC4)cc3)cc2)cs1 [Example 3, 4-(N-(4-(4-(4-cyclohexylbenzylamino)phenyl)-2-thiazolyl)-N-methylamino)benzoic acid] | 0.5 µM |  | 35% | inhibition in vivo at 1 mg/kg (male ob/ob mice): 27%
12 | CN(Cc1ccc(C2CCCCC2)cc1)c1ccc(-c2csc(N(C)Cc3ccc(C(=O)[O-])cc3)n2)cc1.[Na+] [Example 102, sodium 4-(N-(4-(4-(N-(4-cyclohexylbenzyl)-N-methylamino)phenyl)-2-thiazolyl)-N-methylaminomethyl)benzoate] |  | 240 °C |  | Plasma triglyceride concentration (mg/dL) Day 7 (db/db mice; dose 10 mg/kg oral once a day): 277 mg/dL; Plasma triglyceride concentration (mg/dL) Day 14 (db/db mice; dose 10 mg/kg oral once a day): 349 mg/dL; Plasma triglyceride concentration (mg/dL) Day 7 (db/db mice; dose 30 mg/kg oral once a day): 250 mg/dL; Plasma triglyceride concentration (mg/dL) Day 14 (db/db mice; dose 30 mg/kg oral once a day): 307 mg/dL
13 | CN(Cc1ccc(C(=O)O)cc1)c1nc(-c2ccc(NCc3ccc(C4CCCCC4)cc3)cc2)cs1 [Example 115, 4-((N-(4-(4-(4-cyclohexylbenzylamino)phenyl)-2-thiazolyl)-N-methylamino)methyl)benzoic acid] | 0.48 µM | 184 °C (dec.) | 34% | 
14 | CN(Cc1ccc([C@H]2CC[C@H](O)CC2)cc1)c1ccc(-c2csc(N(C)Cc3ccc(C(=O)O)cc3)n2)cc1 [Example 196, trans-4-((N-(4-(4-(N-(4-(4-hydroxycyclohexyl)benzyl)-N-methylamino)phenyl)-2-thiazolyl)-N-methylamino)methyl)benzoic acid] | 0.83 µM | 194 to 196 °C | -8% | 
15 | CN(Cc1ccc(C2CCC(Cl)(Cl)CC2)cc1)c1ccc(-c2csc(N(C)Cc3ccc(C(=O)O)cc3)n2)cc1 [Example 208, 4-((N-(4-(4-(N-(4-(4,4-dichlorocyclohexyl)benzyl)-N-methylamino)phenyl)-2-thiazolyl)-N-methylamino)methyl)benzoic acid] | 0.11 µM | 210 to 213 °C | 21% | 
16 | CC(=O)OCOC(=O)c1ccc(CN(C)c2nc(-c3ccc(OCc4ccc(C5CCCCC5)cc4)cc3)cs2)cc1 [Example 270, acetoxymethyl 4-((N-(4-(4-(4-cyclohexylbenzyloxy)phenyl)-2-thiazolyl)-N-methylamino)methyl)benzoate] |  | 100 to 104 °C |  | 
